Experiments:
THP-1 cells = assay: TNF-α and IL-1β production in PMA/LPS-treated THP-1 cells (ELISA); type: cell-based, human
Experimental: The ability of MMI-0100 ([…]; SEQ ID NO: 1) to inhibit the production of inflammatory cytokines (TNF-α and IL-1β) in vitro was examined using THP-1 cells. Briefly, THP-1 cells were activated with PMA for 24 hours, and treated subsequently with 10 μg of LPS. The amount of inflammatory cytokines (TNF-α and IL-1β, pg/ml) produced in the medium in the presence or absence of increasing concentrations (1 μM, 3 μM, 10 μM, and 30 μM) of MMI-0100 ([…]; SEQ ID NO: 1) was determined by cytokine specific enzyme-linked immunosorbent assay (ELISA). Analysis of inflammatory cytokines (TNF-α and IL-1β) was performed with cytokine-specific ELISA kit (PeproTech, Inc., Rocky Hill, N.J.). The cytokine-specific ELISA employs highly-purified anti-cytokine antibodies (capture antibodies) that are noncovalently adsorbed (“coated”) onto plastic microwell plates. After washings, the immobilized antibodies capture specifically soluble cytokine proteins present in samples applied to the plate. After washing away unbound material, the captured cytokine proteins are detected by biotin-conjugated anti-cytokine antibodies (detection antibodies) followed by an enzyme-labeled avidin or streptavidin reporter. Following addition of a chromogenic (color-developing) substrate-containing solution, the level of colored product generated by the bound, enzyme-linked, detection reagents can be measured spectrophotometrically using an ELISA-plate reader at an appropriate optical density.
In order to prepare plates for ELISA, capture antibodies (anti-TNF-α or anti-IL-1β antibodies) were diluted with PBS to a concentration of 1 μg/ml. 100 μl of each diluted antibody was added immediately to each well of the ELISA plate. […]
The standard was diluted from 2 ng/ml to zero in diluent, and 100 μl of the standard or sample was added immediately to each well in triplicate and incubated at room temperature for at least 2 hours. […] The level of colored product generated by the bound, enzyme-linked, detection reagents was measured spectrophotometrically using an ELISA-plate reader at an appropriate optical density.

MK2 = target: T1, MK2 (Homo sapiens, UniProt P49137); assay: MK2 radiometric kinase assay; type: biochemical
T1 construct: purchased Millipore (IC50 Profiler Express / KinaseProfiler service)
T1 sequence (P49137 whole entry, species assumed): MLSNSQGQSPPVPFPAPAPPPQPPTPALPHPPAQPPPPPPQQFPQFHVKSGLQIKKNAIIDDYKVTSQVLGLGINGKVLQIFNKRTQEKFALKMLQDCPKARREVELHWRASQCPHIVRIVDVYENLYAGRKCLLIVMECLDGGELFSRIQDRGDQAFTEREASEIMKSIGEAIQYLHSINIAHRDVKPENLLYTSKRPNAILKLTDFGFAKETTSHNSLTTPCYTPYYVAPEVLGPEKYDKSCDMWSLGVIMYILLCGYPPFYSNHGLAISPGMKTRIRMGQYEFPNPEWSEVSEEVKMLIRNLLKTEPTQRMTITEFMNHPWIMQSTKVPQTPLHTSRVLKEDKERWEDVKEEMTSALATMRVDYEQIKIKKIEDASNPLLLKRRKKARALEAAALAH
Source text: A commercial radiometric assay service was used to test the specificity and potency of MMI-0100 ([…]; SEQ ID NO: 1) by measuring its half maximal inhibitory concentrations (IC50). This quantitative assay measures how much MK2 inhibitor (MMI-0100; […] (SEQ ID NO: 1)) is needed to inhibit 50% of a given biological process or component of a process (i.e., an enzyme, cell, or cell receptor). Specifically, in these assays, a positively charged substrate is phosphorylated with a radiolabeled phosphate group from an ATP if the kinase is not inhibited by an inhibitor peptide. The positively charged substrate then is attracted to a negatively charged filter membrane, quantified with a scintillation counter, and compared to a 100% activity control. ATP concentrations within 15 μM of the apparent Km for ATP were chosen since an ATP concentration near the Km may allow for the kinases to have the same relative amount of phosphorylation activity. […]
For the MK2 radiometric assay, 5-10 mU of MK2 was incubated with 50 mM Na b-glycerophosphate pH 7.5, 0.1 mM EGTA, 30 μM KKLNRTLSVA (SEQ ID NO: 34; a substrate peptide for MK2), 10 mM MgAcetate, and 10 μM of [y-^33P-ATP] in a final reaction volume of 25 μl. […] The washed P30 filtermat was dried and its radioactivity was measured by scintillation counter.
IC50 values for inhibitor peptides were determined using Millipore's IC50 Profiler Express service. […]

MKK6 = target: T2, MKK6 (Homo sapiens, UniProt P52564); assay: MKK6 radiometric kinase assay; type: biochemical; conditions: MMI-0100 100 μM; remaining kinase activity
T2 construct: purchased Millipore (KinaseProfiler service)
T2 sequence (P52564 1-334): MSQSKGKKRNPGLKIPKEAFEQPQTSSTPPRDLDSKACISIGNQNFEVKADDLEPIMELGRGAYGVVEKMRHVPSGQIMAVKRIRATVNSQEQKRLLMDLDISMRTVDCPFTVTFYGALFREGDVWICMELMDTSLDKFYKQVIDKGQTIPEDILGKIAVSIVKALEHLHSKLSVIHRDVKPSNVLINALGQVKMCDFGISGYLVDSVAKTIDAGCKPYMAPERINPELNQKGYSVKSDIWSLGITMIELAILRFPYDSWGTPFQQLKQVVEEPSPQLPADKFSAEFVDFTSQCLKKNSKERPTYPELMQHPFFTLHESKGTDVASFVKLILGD
Source text: A commercial radiometric assay service was used to test the specificity and potency of MMI-0100 ([…]; SEQ ID NO: 1) by measuring its half maximal inhibitory concentrations (IC50). This quantitative assay measures how much MK2 inhibitor (MMI-0100; […] (SEQ ID NO: 1)) is needed to inhibit 50% of a given biological process or component of a process (i.e., an enzyme, cell, or cell receptor). Specifically, in these assays, a positively charged substrate is phosphorylated with a radiolabeled phosphate group from an ATP if the kinase is not inhibited by an inhibitor peptide. The positively charged substrate then is attracted to a negatively charged filter membrane, quantified with a scintillation counter, and compared to a 100% activity control. ATP concentrations within 15 μM of the apparent Km for ATP were chosen since an ATP concentration near the Km may allow for the kinases to have the same relative amount of phosphorylation activity. The individual conditions for each radiometric assay are as follows.
The reaction was initiated by adding the MgATP. After incubation for 40 minutes at room temperature, 5 μl of the incubation mix was used to initiate the p38MAPK radiometric assay described above.
IC50 values for inhibitor peptides were determined using Millipore's IC50 Profiler Express service. The IC50 value was estimated from a 10-point curve of one-half log dilutions. […]

YARAAARQARAKALARQLGVAA [MMI-0100]
IL-1β level in the medium (THP-1 cells; 30 μM MMI-0100, PMA then LPS (stimulated control about 450 pg/ml)): about 100 pg/ml | TNF-α level in the medium (THP-1 cells; 30 μM MMI-0100, PMA then LPS (stimulated control about 1000 pg/ml)): about 300 pg/ml | production of pro-inflammatory cytokines (TNF-α and IL-1β) (THP-1 cells; 1, 3, 10, 30 μM MMI-0100): dose-dependent manner | Percent Activity, MK2 (MK2; MMI-0100 100 μM, remaining kinase activity): <5% | inhibition of MK2 activity (MK2; concentration used for specificity profiling (Table 2, 100 μM)): > 95% | Percent Activity, MKK6 (MKK6): 50%
